The text below walks through data of patent publication US20130108717A1, “COMPOSITIONS FOR THE TREATMENT OF GYNAECOLOGICAL DISORDERS” (INDENA S.P.A., priority 2010, published 2013).

The structures appear in SMILES notation. Values after ≈ are worked out from the molar mass of the structure shown.

What all share (format): cell-based
For one test, the system named is Trichomonas vaginalis. Kind of test: MIC on Diamond's medium, loss of motility, vaginally isolated strains.
Test [1] has as its system Methicillin-resistant Staphylococcus aureus. Kind of test: MIC, micro-dilution in culture broth (CLSI M 7-A5), vaginally isolated strains. (In general: Broth dilution looks for growth in wells or tubes with falling amounts of substance.)
For another test, the system named is Candida albicans. Briefly: MIC, microdilution in broth (CLSI M27-A), vaginally isolated strains.
The next test has as its system Gardnerella vaginalis. Briefly: MIC, broth dilution (CLSI M11-A4), vaginally isolated strains.

Regarding `CC1(C)[C@@H](O)CC[C@]2(C)[C@H]3C(=O)C=C4[C@@H]5C[C@@](C)(C(=O)O)CC[C@]5(C)CC[C@@]4(C)[C@]3(C)CC[C@@H]12` [18-beta-glycyrrhetic acid, 18β-glycyrrhetic acid], the MIC was 150 µg/mL (≈ 319 µM) against Trichomonas vaginalis (Trichomonas vaginalis 1); 150 µg/mL (≈ 319 µM) with Trichomonas vaginalis (Trichomonas vaginalis 2); 150 µg/mL (≈ 319 µM) in the test on Trichomonas vaginalis (Trichomonas vaginalis 3); 150 µg/mL (≈ 319 µM) with Trichomonas vaginalis (Trichomonas vaginalis 4); over 1333 µg/mL in test [1] (S. aureus Met R 1); over 1333 µg/mL in test [1] (S. aureus Met R 2). For the same molecule, the MIC in test [1] (S. aureus Met R 3) was 1333 µg/mL (≈ 2830 µM); in test [1] (S. aureus Met R 4), 1333 µg/mL (≈ 2830 µM); in test [1] (S. aureus Met R 5) it was over 1333 µg/mL; in the test with Candida albicans (Candida albicans 1), 667 µg/mL (≈ 1420 µM); in the test with Candida albicans (Candida albicans 2), 667 µg/mL (≈ 1420 µM); in the test on Candida albicans (Candida albicans 3), 667 µg/mL (≈ 1420 µM). The MIC in the test with Candida albicans (Candida albicans 4) was 667 µg/mL (≈ 1420 µM); in the test with Candida albicans (Candida albicans 5), 333 µg/mL (≈ 707 µM); against Gardnerella vaginalis (Gardnerella vaginalis 1) it was 667 µg/mL (≈ 1420 µM); with Gardnerella vaginalis (Gardnerella vaginalis 2) it was 667 µg/mL (≈ 1420 µM); in the test on Gardnerella vaginalis (Gardnerella vaginalis 3) it was 333 µg/mL (≈ 707 µM); with Gardnerella vaginalis (Gardnerella vaginalis 4), 167 µg/mL (≈ 355 µM). Moreover, the MIC against Gardnerella vaginalis (Gardnerella vaginalis 5) came to 667 µg/mL (≈ 1420 µM); against Gardnerella vaginalis (Gardnerella vaginalis 6) it was 667 µg/mL (≈ 1420 µM); against Gardnerella vaginalis (Gardnerella vaginalis 7), 167 µg/mL (≈ 355 µM); in the test on Gardnerella vaginalis (Gardnerella vaginalis 8), 333 µg/mL (≈ 707 µM); in the test with Gardnerella vaginalis (Gardnerella vaginalis 9) it was 333 µg/mL (≈ 707 µM); in the test on Gardnerella vaginalis (Gardnerella vaginalis 10), 167 µg/mL (≈ 355 µM).
